Values quoted from earlier work as cited in patent US7507425B2, “Method for the treatment of cachexia” (The Quigley Corporation, priority 2005, dated 2009).

Tested on: nitric oxide synthase (NOS)
Settings: Northern-blot and immunoblotting; macrophages activated with vs without curcumin

COc1cc(/C=C/C(=O)CC(=O)/C=C/c2ccc(O)c(OC)c2)ccc1O [curcumin]
levels of mRNA and 130-k Da protein of inducible NOS: significantly reduced levels
